We go through 1 molecule from PMC5218480 (PLoS ONE, 2017).

This experiment concerns MV-4-11 cells. Description: Gene expression microarray analysis (Affymetrix PrimeView) and GSEA. The note with it: ProbeSet 11743882_a_at; LIST D. Also noted: RFU PODN (11730768_x_at) / Fold change /veh PODN (11730768_x_at) / RFU LINC00158 (11744669_a_at) / Fold change /veh LINC00158 (11744669_a_at) / RFU DUSP10 (11751237_a_at) / Fold change /veh DUSP10 (11751237_a_at) / RFU ID3 (11757404_x_at) / Fold change /veh ID3 (11757404_x_at) / RFU PLEKHG5 (11737974_s_at) / Fold change /veh PLEKHG5 (11737974_s_at) / RFU LRRC4B (11730491_at) / Fold change /veh LRRC4B (11730491_at) / RFU GIMAP4 (11747438_a_at) / Fold change /veh GIMAP4 (11747438_a_at) / RFU KRT8 (11758183_x_at) / Fold change /veh KRT8 (11758183_x_at) / RFU CNN1 (11734310_a_at) / Fold change /veh CNN1 (11734310_a_at) / RFU VPS37D (11726825_at) / Fold change /veh VPS37D (11726825_at) / RFU C10orf10 (11716522_x_at) / Fold change /veh C10orf10 (11716522_x_at) / RFU KIR2DL2 /// KIR2DL4 /// KIR2DL5A /// KIR2DL5B /// KIR2DS1 /// KIR2DS2 /// KIR2DS3 /// KIR2DS4 /// KIR3DL3 /// KIR3DL3 /// KIR3DS1 (11738374_at) / Fold change /veh KIR2DL2 /// KIR2DL4 /// KIR2DL5A /// KIR2DL5B /// KIR2DS1 /// KIR2DS2 /// KIR2DS3 /// KIR2DS4 /// KIR3DL3 /// KIR3DL3 /// KIR3DS1 (11738374_at) / RFU C1QL1 (11718748_at) / Fold change /veh C1QL1 (11718748_at) / RFU TMPRSS4 (11747572_a_at) / Fold change /veh TMPRSS4 (11747572_a_at) / RFU HAMP (11756126_x_at) / Fold change /veh HAMP (11756126_x_at) / RFU RNFT2 (11725882_a_at) / Fold change /veh RNFT2 (11725882_a_at) / RFU NR4A2 (11747474_a_at) / Fold change /veh NR4A2 (11747474_a_at) / RFU ABCC12 (11746883_a_at) / Fold change /veh ABCC12 (11746883_a_at) / RFU TMEM136 (11760407_x_at) / Fold change /veh TMEM136 (11760407_x_at) / RFU CLDN22 /// WWC2 (11732394_at) / Fold change /veh CLDN22 /// WWC2 (11732394_at) / RFU HLA-DPB1 (11760878_x_at) / Fold change /veh HLA-DPB1 (11760878_x_at) / RFU SPINT1 (11716480_a_at) / Fold change /veh SPINT1 (11716480_a_at) / RFU GAP43 (11754022_s_at) / Fold change /veh GAP43 (11754022_s_at) / RFU A4GNT (11735810_at) / Fold change /veh A4GNT (11735810_at) / RFU PRB3 (11715151_x_at) / Fold change /veh PRB3 (11715151_x_at) / RFU TUBB4B (11761932_at) / Fold change /veh TUBB4B (11761932_at) / RFU CAPN14 (11732068_a_at) / Fold change /veh CAPN14 (11732068_a_at) / RFU TMCC2 (11721928_a_at) / Fold change /veh TMCC2 (11721928_a_at) / RFU IRGQ (11745062_a_at) / Fold change /veh IRGQ (11745062_a_at) / RFU FAM174B (11720279_a_at) / Fold change /veh FAM174B (11720279_a_at) / RFU TMPRSS4 (11748680_a_at) / Fold change /veh TMPRSS4 (11748680_a_at) / RFU FAM212B (11763350_a_at) / Fold change /veh FAM212B (11763350_a_at) / RFU PLEKHG5 (11743358_a_at) / Fold change /veh PLEKHG5 (11743358_a_at) / RFU ZSCAN30 (11745921_a_at) / Fold change /veh ZSCAN30 (11745921_a_at) / RFU CMKLR1 (11741424_a_at) / Fold change /veh CMKLR1 (11741424_a_at) / RFU LOC101060620 /// MAPK8IP1 (11723275_at) / Fold change /veh LOC101060620 /// MAPK8IP1 (11723275_at) / RFU SPTSSB (11747773_x_at) / Fold change /veh SPTSSB (11747773_x_at) / RFU PRSS12 (11739890_at) / Fold change /veh PRSS12 (11739890_at) / RFU BIN1 (11741810_x_at) / Fold change /veh BIN1 (11741810_x_at) / RFU WNT11 (11732464_a_at) / Fold change /veh WNT11 (11732464_a_at) / RFU C10orf10 (11716521_a_at) / Fold change /veh C10orf10 (11716521_a_at) / RFU C5orf56 (11738089_at) / Fold change /veh C5orf56 (11738089_at) / RFU CYB561 (11721691_x_at) / Fold change /veh CYB561 (11721691_x_at) / RFU ANKRD19P (11752326_a_at) / Fold change /veh ANKRD19P (11752326_a_at) / RFU OR2T12 /// OR2T33 /// OR2T8 (11738714_s_at) / Fold change /veh OR2T12 /// OR2T33 /// OR2T8 (11738714_s_at) / RFU VCAN (11748164_a_at) / Fold change /veh VCAN (11748164_a_at) / RFU JSRP1 (11732532_at) / Fold change /veh JSRP1 (11732532_at) / RFU KRTAP10-11 (11738290_x_at) / Fold change /veh KRTAP10-11 (11738290_x_at) / RFU MYO3A (11730013_a_at) / Fold change /veh MYO3A (11730013_a_at) / RFU EBF3 (11725865_a_at) / Fold change /veh EBF3 (11725865_a_at) / RFU CAMK2N1 (11719241_x_at) / Fold change /veh CAMK2N1 (11719241_x_at) / RFU C5orf56 (11738088_a_at) / Fold change /veh C5orf56 (11738088_a_at) / RFU OLFML3 (11715873_a_at) / Fold change /veh OLFML3 (11715873_a_at) / RFU LOC100653217 /// NTM (11731650_a_at) / Fold change /veh LOC100653217 /// NTM (11731650_a_at) / RFU MAPK11 (11762145_a_at) / Fold change /veh MAPK11 (11762145_a_at) / RFU FIZ1 (11724087_x_at) / Fold change /veh FIZ1 (11724087_x_at) / RFU OASL (11726364_x_at) / Fold change /veh OASL (11726364_x_at) / RFU SOX15 (11748057_x_at) / Fold change /veh SOX15 (11748057_x_at) / RFU CD79A (11719716_a_at) / Fold change /veh CD79A (11719716_a_at) / RFU HIST1H1D (11736915_at) / Fold change /veh HIST1H1D (11736915_at) / RFU CASKIN2 (11723855_a_at) / Fold change /veh CASKIN2 (11723855_a_at) / RFU LOC730098 (11760151_x_at) / Fold change /veh LOC730098 (11760151_x_at) / RFU OR4N2 (11742367_at) / Fold change /veh OR4N2 (11742367_at) / RFU PRRT2 (11749266_a_at) / Fold change /veh PRRT2 (11749266_a_at) / RFU SNX32 (11753110_a_at) / Fold change /veh SNX32 (11753110_a_at) / RFU CDHR5 (11726645_a_at) / Fold change /veh CDHR5 (11726645_a_at) / RFU RCAN1 (11760418_a_at) / Fold change /veh RCAN1 (11760418_a_at) / RFU FAM167A (11723789_a_at) / Fold change /veh FAM167A (11723789_a_at) / RFU FAM26E (11764081_at) / Fold change /veh FAM26E (11764081_at) / RFU ISYNA1 (11749810_s_at) / Fold change /veh ISYNA1 (11749810_s_at) / RFU ACY1 (11761880_at) / Fold change /veh ACY1 (11761880_at) / RFU 11764098_at / Fold change /veh 11764098_at / RFU SAMD14 (11745864_x_at) / Fold change /veh SAMD14 (11745864_x_at) / RFU NPB (11741838_a_at) / Fold change /veh NPB (11741838_a_at) / RFU TMPRSS6 (11731388_a_at) / Fold change /veh TMPRSS6 (11731388_a_at) / RFU KRTAP10-2 (11738614_at) / Fold change /veh KRTAP10-2 (11738614_at) / RFU ARHGAP8 /// PRR5-ARHGAP8 (11727945_x_at) / Fold change /veh ARHGAP8 /// PRR5-ARHGAP8 (11727945_x_at) / RFU KRTAP5-7 /// NADSYN1 (11734609_at) / Fold change /veh KRTAP5-7 /// NADSYN1 (11734609_at) / RFU RASL12 (11751679_a_at) / Fold change /veh RASL12 (11751679_a_at) / RFU CDKN2B (11736163_a_at) / Fold change /veh CDKN2B (11736163_a_at) / RFU PRF1 (11729649_at) / Fold change /veh PRF1 (11729649_at) / RFU, ZNF638 /// ZNF638-IT1 / Fold change vs veh, ZNF638 /// ZNF638-IT1 / RFU, PANK3 / Fold change vs veh, PANK3 / RFU, SH3YL1 / Fold change vs veh, SH3YL1 / RFU, ZEB2 / Fold change vs veh, ZEB2 / RFU, NRIP1 / Fold change vs veh, NRIP1 / RFU, PTTG1IP / Fold change vs veh, PTTG1IP / RFU, CAPN2 / Fold change vs veh, CAPN2 / RFU, MED14 / Fold change vs veh, MED14 / RFU, SNORA58 / Fold change vs veh, SNORA58 / RFU, C1orf63 / Fold change vs veh, C1orf63 / RFU, LRRFIP1 / Fold change vs veh, LRRFIP1 / RFU, NDUFAF7 / Fold change vs veh, NDUFAF7 / RFU, SLC12A2 / Fold change vs veh, SLC12A2 / RFU, IBTK / Fold change vs veh, IBTK / RFU, ESF1 / Fold change vs veh, ESF1 / Fold change vs veh, TMEM50B / RFU, TAOK1 / Fold change vs veh, TAOK1 / RFU, ACBD3 / Fold change vs veh, ACBD3 / RFU, TMA16 / Fold change vs veh, TMA16 / RFU, RWDD3 / Fold change vs veh, RWDD3 / RFU, BCAT1 / Fold change vs veh, BCAT1 / RFU, EDEM3 / Fold change vs veh, EDEM3 / RFU, TMEM33 / Fold change vs veh, TMEM33 / RFU, WDR75 / Fold change vs veh, WDR75 / RFU, AHCTF1 / Fold change vs veh, AHCTF1 / RFU, TFRC / Fold change vs veh, TFRC / RFU, ZDHHC17 / Fold change vs veh, ZDHHC17 / RFU, NOM1 / Fold change vs veh, NOM1 / RFU, ARL8B / Fold change vs veh, ARL8B / RFU, ZBTB11 / Fold change vs veh, ZBTB11 / RFU, TAMM41 / Fold change vs veh, TAMM41 / RFU, KIAA1704 /// LOC100996395 / Fold change vs veh, KIAA1704 /// LOC100996395 / RFU, ING1 / Fold change vs veh, ING1 / RFU, TRMT61B / Fold change vs veh, TRMT61B / RFU, FUBP3 / Fold change vs veh, FUBP3 / RFU, TP53 / Fold change vs veh, TP53 / RFU, TNKS2 / Fold change vs veh, TNKS2 / RFU, ZFP14 / Fold change vs veh, ZFP14 / RFU, ACTR2 / Fold change vs veh, ACTR2 / RFU, PPP3R1 / Fold change vs veh, PPP3R1 / RFU, PIK3R1 / Fold change vs veh, PIK3R1 / RFU, HNRNPA1 / Fold change vs veh, HNRNPA1 / RFU, RNF170 / Fold change vs veh, RNF170 / RFU, ZNF28 / Fold change vs veh, ZNF28 / RFU, RNGTT / Fold change vs veh, RNGTT / RFU, OGT / Fold change vs veh, OGT / RFU, BRD1 / Fold change vs veh, BRD1 / RFU, MARS / Fold change vs veh, MARS / RFU, ZNF655 / Fold change vs veh, ZNF655 / RFU, FAHD1 / Fold change vs veh, FAHD1 / RFU, BDP1 / Fold change vs veh, BDP1 / RFU, LRRCC1 / Fold change vs veh, LRRCC1 / RFU, ARID1A / Fold change vs veh, ARID1A / RFU, ZNF146 / Fold change vs veh, ZNF146 / RFU, ZNF330 / Fold change vs veh, ZNF330 / RFU, GPN3 / Fold change vs veh, GPN3 / RFU, C9orf123 / Fold change vs veh, C9orf123 / RFU, N4BP2L2 / Fold change vs veh, N4BP2L2 / RFU, ARFIP1 / Fold change vs veh, ARFIP1 / RFU, FAM179B / Fold change vs veh, FAM179B / RFU, BCL10 / Fold change vs veh, BCL10 / RFU, UHRF1BP1L / Fold change vs veh, UHRF1BP1L / RFU, BET1 / Fold change vs veh, BET1 / RFU, CNOT2 / Fold change vs veh, CNOT2 / RFU, ZNF268 / Fold change vs veh, ZNF268 / Fold change vs veh, ZNF507 / RFU, DGCR2 / Fold change vs veh, DGCR2 / RFU, WDSUB1 / Fold change vs veh, WDSUB1 / Fold change vs veh, HSP90B1 /// MIR3652 / RFU, ADSS / Fold change vs veh, ADSS / RFU, GK / Fold change vs veh, GK / RFU, ZNF148 / Fold change vs veh, ZNF148 / RFU, TAF9 / Fold change vs veh, TAF9 / RFU, SLC1A5 / Fold change vs veh, SLC1A5 / RFU, SLMO2 / Fold change vs veh, SLMO2 / RFU, ABCC4 / Fold change vs veh, ABCC4 / RFU, LOC101060439 /// RAP1B / Fold change vs veh, LOC101060439 /// RAP1B / RFU, RFX7 / Fold change vs veh, RFX7 / RFU, GTPBP10 / Fold change vs veh, GTPBP10 / RFU, CNEP1R1 / Fold change vs veh, CNEP1R1 / RFU, BIVM-ERCC5 /// ERCC5 / Fold change vs veh, BIVM-ERCC5 /// ERCC5 / RFU, ILF3 / Fold change vs veh, ILF3 / RFU 11762660_at / Fold change /veh 11762660_at / RFU VCAN (11757783_s_at) / Fold change /veh VCAN (11757783_s_at) / RFU DDX43 (11728927_at) / Fold change /veh DDX43 (11728927_at) / RFU KRT8 (11758188_x_at) / Fold change /veh KRT8 (11758188_x_at) / RFU NKD1 (11759106_at) / Fold change /veh NKD1 (11759106_at) / RFU SRD5A1 (11742802_a_at) / Fold change /veh SRD5A1 (11742802_a_at) / RFU TPSAB1 /// TPSB2 (11721975_s_at) / Fold change /veh TPSAB1 /// TPSB2 (11721975_s_at) / RFU GSTM3 (11746129_a_at) / Fold change /veh GSTM3 (11746129_a_at) / RFU IL23R (11737362_x_at) / Fold change /veh IL23R (11737362_x_at) / RFU TMEM51 (11727254_a_at) / Fold change /veh TMEM51 (11727254_a_at) / RFU PIWIL2 (11732686_x_at) / Fold change /veh PIWIL2 (11732686_x_at) / RFU ORM1 (11744905_x_at) / Fold change /veh ORM1 (11744905_x_at) / RFU CCDC152 (11743942_at) / Fold change /veh CCDC152 (11743942_at) / RFU ECM1 (11717891_a_at) / Fold change /veh ECM1 (11717891_a_at) / RFU IL23R (11748794_a_at) / Fold change /veh IL23R (11748794_a_at) / RFU TNFAIP8L3 (11732012_x_at) / Fold change /veh TNFAIP8L3 (11732012_x_at) / RFU MBOAT4 (11741988_at) / Fold change /veh MBOAT4 (11741988_at) / RFU 11764193_at / Fold change /veh 11764193_at / RFU TMEM53 (11763286_at) / Fold change /veh TMEM53 (11763286_at) / RFU MAGEB2 (11727129_at) / Fold change /veh MAGEB2 (11727129_at) / RFU TMEM200A (11744735_a_at) / Fold change /veh TMEM200A (11744735_a_at) / RFU CCDC152 (11751479_a_at) / Fold change /veh CCDC152 (11751479_a_at) / RFU FAM211A (11726209_a_at) / Fold change /veh FAM211A (11726209_a_at) / RFU RGS16 (11746705_a_at) / Fold change /veh RGS16 (11746705_a_at) / RFU VCAN (11755009_s_at) / Fold change /veh VCAN (11755009_s_at) / RFU RHOB (11743442_s_at) / Fold change /veh RHOB (11743442_s_at) / RFU RGS16 (11720943_a_at) / Fold change /veh RGS16 (11720943_a_at) / RFU RGS16 (11720944_at) / Fold change /veh RGS16 (11720944_at) / RFU, VPS4B / Fold change vs veh, VPS4B / RFU, CREB1 / Fold change vs veh, CREB1 / RFU, DNAJC13 / Fold change vs veh, DNAJC13 / RFU, GNAQ / Fold change vs veh, GNAQ / RFU, CDK5R1 / Fold change vs veh, CDK5R1 / RFU, ZRANB3 / Fold change vs veh, ZRANB3 / RFU, CUL4A / Fold change vs veh, CUL4A / RFU, CCNY / Fold change vs veh, CCNY / RFU, UFL1 / Fold change vs veh, UFL1 / RFU, COG3 / Fold change vs veh, COG3 / RFU, DIAPH2 / Fold change vs veh, DIAPH2 / RFU, SKA2 / Fold change vs veh, SKA2 / RFU, AFF3 / Fold change vs veh, AFF3 / RFU, LMF1 / Fold change vs veh, LMF1 / RFU, IPO11 / Fold change vs veh, IPO11 / RFU, DFFB / Fold change vs veh, DFFB / RFU, FOXP1 / Fold change vs veh, FOXP1 / RFU, CARD8 / Fold change vs veh, CARD8 / RFU, STRN3 / Fold change vs veh, STRN3 / RFU, ADK / Fold change vs veh, ADK / RFU, RASSF2 / Fold change vs veh, RASSF2 / RFU, WIPF1 / Fold change vs veh, WIPF1 / RFU, LARP1B / Fold change vs veh, LARP1B / RFU, RASA1 / Fold change vs veh, RASA1 / RFU, RB1 / Fold change vs veh, RB1 / RFU, PPFIA1 / Fold change vs veh, PPFIA1 / RFU, MAT2A / Fold change vs veh, MAT2A / RFU, CCT5 / Fold change vs veh, CCT5 / RFU, WDR92 / Fold change vs veh, WDR92 / RFU, CUX1 / Fold change vs veh, CUX1 / RFU, TTC7A / Fold change vs veh, TTC7A / RFU, TMEM135 / Fold change vs veh, TMEM135 / RFU, DEPTOR / Fold change vs veh, DEPTOR / RFU, CPM / Fold change vs veh, CPM / RFU, DNAJB6 / Fold change vs veh, DNAJB6 / RFU, CACNA2D3 / Fold change vs veh, CACNA2D3 / RFU, DTX4 / Fold change vs veh, DTX4 / RFU, TFCP2 / Fold change vs veh, TFCP2 / RFU, GMCL1 /// GMCL1P1 / Fold change vs veh, GMCL1 /// GMCL1P1 / RFU, AEBP2 / Fold change vs veh, AEBP2 / RFU, SNHG1 /// SNORD22 /// SNORD25 /// SNORD26 /// SNORD27 /// SNORD28 /// SNORD29 /// SNORD31 / Fold change vs veh, SNHG1 /// SNORD22 /// SNORD25 /// SNORD26 /// SNORD27 /// SNORD28 /// SNORD29 /// SNORD31 / Fold change (Aza/veh), C12orf56 (ProbeSet 11735607_a_at) / Fold change (ACY-1035/veh), C12orf56 (ProbeSet 11735607_a_at) / Fold change (Aza/veh), FGFR1OP (ProbeSet 11751329_s_at) / Fold change (ACY-1035/veh), FGFR1OP (ProbeSet 11751329_s_at) / Fold change (Aza/veh), VPS36 (ProbeSet 11739960_a_at) / Fold change (ACY-1035/veh), VPS36 (ProbeSet 11739960_a_at) / RFU SYPL1 (11715823_x_at) / Fold change /veh SYPL1 (11715823_x_at) / RFU IGFBP7 (11715501_s_at) / Fold change /veh IGFBP7 (11715501_s_at) / RFU REEP3 (11722064_at) / Fold change /veh REEP3 (11722064_at) / RFU IGLL1 (11728026_x_at) / Fold change /veh IGLL1 (11728026_x_at): dose or concentration left out as unconfirmed. The format is cell-based, human.

Consider `Nc1ccc(-c2cccs2)cc1NC(=O)c1ccc2c(c1)cc(C1CC1)n2CCN1CCOCC1` [ACY-1035], for which the “Fold change vs veh, STRN3” value turned out to be 0.92.
